Measurements reported in patent US4218562A, “Antibiotic derivatives of XK-62-2” (Abbott Laboratories, priority 1978, dated 1980).
Converted amounts (≈) assume the structure as drawn.

Columns and labels:
Format in all cases: cell-based
[1] = tested on: Pseudomanas aeruginosa BMH 1; assay: Agar dilution MIC, pH 8.0: Pseudomonas aeruginosa BMH 1; settings: BMH1, agar-dilution method, pH 8.0, read-out: Minimum Inhibitory Concentration
[2] = tested on: Salmanella typhosa ATCC 9992; assay: microbe, parasite or virus in culture; settings: agar-dilution method, pH 8.0; read-out: Minimum Inhibitory Concentration
[3] = tested on: Proteus vulgaris ATCC 6897; assay: Agar dilution MIC, pH 8.0: Proteus vulgaris ATCC 6897; settings: ATCC6897, agar-dilution method, pH 8.0, read-out: Minimum Inhibitory Concentration
Escherichia coli KY 8327 = assay: Agar dilution MIC, pH 8.0: Escherichia coli KY 8327; settings: for MIC: Escherichia coli, KY8327, agar-dilution method, pH 8.0, strain produces gentamicin adenyltransferase, read-out: Minimum Inhibitory Concentration; for anti-bacterial activity: comparison of MIC in Table 1, E. coli KY 8327
Text: (§1) The former bacterium inactivates kanamycins and gentamicins by adenylation, and the latter inactivates gentamicins by acetylation.

[4] = tested on: Krobsiella pneumoniae ATCC 10081; assay: Agar dilution MIC, pH 8.0: Krobsiella pneumoniae ATCC 10081; settings: agar-dilution method, pH 8.0; read-out: Minimum Inhibitory Concentration
[5] = tested on: Bacillus subtilis No. 10707; assay: Agar dilution MIC, pH 8.0: Bacillus subtilis No. 10707; settings: NO.10707, agar-dilution method, pH 8.0, read-out: Minimum Inhibitory Concentration
Escherichia coli ATCC 26 = assay: Agar dilution MIC, pH 8.0: Escherichia coli ATCC 26; settings: ATCC26, agar-dilution method, pH 8.0, read-out: Minimum Inhibitory Concentration
[6] = tested on: Staphylococcus aureus ATCC 6538P; assay: Agar dilution MIC, pH 8.0: Staphylococcus aureus ATCC 6538P; settings: ATCC6538P, agar-dilution method, pH 8.0, read-out: Minimum Inhibitory Concentration
Escherichia coli KY 8348 = assay: Agar dilution MIC, pH 8.0: Escherichia coli KY 8348; settings: for MIC: Escherichia coli, KY8348, agar-dilution method, pH 8.0, strain produces gentamicin acetyltransferase Type I, read-out: Minimum Inhibitory Concentration; for anti-bacterial activity: comparison of MIC in Table 1, E. coli KY 8348
Text: as §1

[7] = tested on: strains of Escherichia coli having an R factor; assay: Anti-bacterial activity against Escherichia coli having an R factor; settings: E. coli having an R factor which shows resistance to known aminoglycoside antibiotics
[8] = tested on: Shigella seanei ATCC 9250; assay: microbe, parasite or virus in culture; settings: ATCC9250, agar-dilution method, pH 8.0, read-out: Minimum Inhibitory Concentration
[9] = tested on: Bacillus subtillus ATCC 6688; assay: Agar dilution MIC, pH 7.2: Bacillus subtillus ATCC 6688; settings: ATCC6688, agar dilution method, pH 7.2, read-out: Minimum Inhibitory Concentration
Sarcina lucca ATCC 9341 = assay: Agar dilution MIC, pH 7.2: Sarcina lucca ATCC 9341; settings: ATCC9341, pH 7.2, read-out: Minimum Inhibitory Concentration
[10] = tested on: various bacteria having a resistance to at least one of gentamicin antibiotics and XK-62-2; assay: Antibacterial activity against resistant bacteria (summary of Table 2); settings: bacteria producing gentamicin adenyltransferase and/or gentamicin acetyltransferase Type I and Type II; from Table 2
[11] = tested on: Pseudomonas aeruginosa BMH No. 1; assay: Agar dilution MIC, pH 7.2: Pseudomonas aeruginosa BMH No. 1; settings: BMHNO.1, agar dilution method, pH 7.2, read-out: Minimum Inhibitory Concentration

SMILES | MIC [1] [mg/L] | MIC [2] [mg/L] | MIC [3] [mg/L] | MIC (Escherichia coli KY 8327) [mg/L] | anti-bacterial activity (Escherichia coli KY 8327) | MIC [4] [mg/L] | MIC [5] [mg/L] | MIC (Escherichia coli ATCC 26) [mg/L] | MIC [6] [mg/L] | MIC (Escherichia coli KY 8348) [mg/L] | anti-bacterial activity (Escherichia coli KY 8348) | anti-bacterial activity [7] | MIC [8] [mg/L] | MIC [9] [mg/L] | MIC (Sarcina lucca ATCC 9341) [mg/L] | antibacterial activity [10] | MIC [11] [mg/L]
CNC[C@@H]1CC[C@@H](NC(=O)[C@@H](O)CCN)[C@@H](O[C@H]2[C@H](O)[C@@H](O[C@H]3OC[C@](C)(O)[C@H](NC)[C@H]3O)[C@H](N)C[C@@H]2N)O1 [Compound I, 2'-N-[L-(-)-α-hydroxy-γ-aminobutyryl]XK-62-2] | 25 (≈ 44.3 µM) | 0.2 (≈ 0.354 µM) | 0.39 (≈ 0.691 µM) | 3.1 (≈ 5.49 µM) | strong anti-bacterial activity | 0.1 (≈ 0.177 µM) | 0.05 (≈ 0.0885 µM) | 0.39 (≈ 0.691 µM) | 0.05 (≈ 0.0885 µM) | 0.05 (≈ 0.0885 µM) | strong anti-bacterial activity | strong anti-bacterial activity | 0.39 (≈ 0.691 µM) | – | – | – | –
CNC[C@@H]1CC[C@@H](N)[C@@H](O[C@H]2[C@H](O)[C@@H](O[C@H]3OC[C@](C)(O)[C@H](NC)[C@H]3O)[C@H](NC(=O)[C@@H](O)CCN)C[C@@H]2N)O1 [Compound II, 1-N-[L-(-)-α-hydroxy-γ-aminobutyryl]XK-62-2] | – | – | 0.065 (≈ 0.115 µM) | 0.016 (≈ 0.0283 µM) | strong anti-bacterial activity | 0.008 (≈ 0.0142 µM) | – | – | 0.016 (≈ 0.0283 µM) | – | strong anti-bacterial activity | strong anti-bacterial activity | – | 0.1 (≈ 0.177 µM) | 0.4 (≈ 0.708 µM) | very strong antibacterial activity | 1.56 (≈ 2.76 µM)
CNC[C@@H]1CC[C@@H](NC(=O)[C@@H](O)CCN)[C@@H](O[C@H]2[C@H](O)[C@@H](O[C@H]3OC[C@](C)(O)[C@H](NC)[C@H]3O)[C@H](NC(=O)[C@@H](O)CCN)C[C@@H]2N)O1 [III, 1-N-2'-N-bis-[L-(-)-α-hydroxy-γ-aminobutyryl]XK -62-2] | 8.34 (≈ 12.5 µM) | – | 0.521 (≈ 0.783 µM) | 0.065 (≈ 0.0976 µM) | strong anti-bacterial activity | 0.065 (≈ 0.0976 µM) | 0.008 (≈ 0.012 µM) | 0.065 (≈ 0.0976 µM) | 0.065 (≈ 0.0976 µM) | 0.065 (≈ 0.0976 µM) | strong anti-bacterial activity | strong anti-bacterial activity | 0.26 (≈ 0.391 µM) | – | – | – | –
